For ten compounds, IC50 results are on record in patent US20210284638A1 (Saint Louis University, priority 2018, published 2021).

Test [1] deals with T1, Recombinant human integrin αVβ6 (Homo sapiens, UniProt P06756+P18564).
T1 construct: purchased R&D Systems 3817-AV
Description: Solid Phase Receptor Assay (SPRA) for αVβ6 function. Format: binding. Particulars: plate-bound human LAP. The protocol:
E. Solid Phase Receptor Assay (SPRA) for αVβ6 Function
Wells were washed 3 times with 150 μL TBS+, and then 150 μL of blocking buffer (TBS+ with 1% bovine serum albumin, Sigma A7906) was added. The plate was incubated for 1 hr at 37° C., and then washed 3× with TBS+ buffer. […] Compounds were diluted to 20 μM and then 1 μL was added to each well of the plate according to a standard template with each sample repeated in triplicate. After incubation for two hours at room temperature, the plate was washed 3× with 150 μL of TBS+ buffer. To each well, 50 μL of biotinylated anti-αV antibody (R&D Systems, BAF1219) at 0.5 μg/mL in TBS+/0.1% BSA were added and the plate was covered and incubated for 1 hr at room temperature. After washing the plate 3× with 150 μL of TBS+ buffer, 50 μL of streptavidin-conjugated horseradish peroxidase (R&D Systems, DY998) diluted in TBS+ blocking buffer were added to the wells and the plate incubated for 20 min at room temperature. The plate was washed 3× with TBS+ buffer followed by 50 μL of TMB substrate (Sigma T4444) added to each well in the dark and the plate incubated for 10 min at room temperature. 25 μL of 1.0 M phosphoric acid was added as a stop solution and the plates were read at 450 nm using a Spectramax plate reader.

For test [2], the target named is T2, Recombinant human integrin αvβ1 (Homo sapiens, UniProt P05556+P06756).
T2 construct: purchased R&D Systems 6579-AV
Description: Solid Phase Receptor Assay (SPRA) for αVβ1 function. Format: binding. Particulars: plate-bound human fibronectin. The protocol: B. Solid Phase Receptor Assay (SPRA) for αVβ1 Function
Wells were washed 3 times with 150 μL TBS+ and then 150 μL of blocking buffer (TBS+ with 1% bovine serum albumin, Sigma A7906) was added. The plate was incubated for 1 hr at 37° C. and then washed 3× with TBS+ buffer. […] Compounds were diluted to 20 μM and 1 μL was added to each well of the plate according to a standard template with each sample repeated in triplicate. After incubation for two hours at room temperature, the plate was washed 3× with 150 μL of TBS+ buffer. To each well, 50 μL of biotinylated anti-αV antibody (R&D Systems, BAF1219) at 1 μg/mL in TBS+/0.1% BSA were added and the plate covered and incubated for 1 hr at room temperature. After washing the plate 3× with 150 μL of TBS+ buffer, 50 μL of streptavidin-conjugated horseradish peroxidase (R&D Systems, DY998) diluted in TBS+ blocking buffer were added to the wells and the plate incubated for 20 min at room temperature. The plate was washed 3× with TBS+ buffer followed by 50 μL of TMB substrate (Sigma, T4444) added to each well in the dark and the plate incubated for 25 min at room temperature. 25 μL of 1.0 M phosphoric acid was added as a stop solution and the plates were read at 450 nm using a Spectramax plate reader.

Counter-ions that a name gives are not always drawn.

T1 sequence (P06756 31-992 limits assumed): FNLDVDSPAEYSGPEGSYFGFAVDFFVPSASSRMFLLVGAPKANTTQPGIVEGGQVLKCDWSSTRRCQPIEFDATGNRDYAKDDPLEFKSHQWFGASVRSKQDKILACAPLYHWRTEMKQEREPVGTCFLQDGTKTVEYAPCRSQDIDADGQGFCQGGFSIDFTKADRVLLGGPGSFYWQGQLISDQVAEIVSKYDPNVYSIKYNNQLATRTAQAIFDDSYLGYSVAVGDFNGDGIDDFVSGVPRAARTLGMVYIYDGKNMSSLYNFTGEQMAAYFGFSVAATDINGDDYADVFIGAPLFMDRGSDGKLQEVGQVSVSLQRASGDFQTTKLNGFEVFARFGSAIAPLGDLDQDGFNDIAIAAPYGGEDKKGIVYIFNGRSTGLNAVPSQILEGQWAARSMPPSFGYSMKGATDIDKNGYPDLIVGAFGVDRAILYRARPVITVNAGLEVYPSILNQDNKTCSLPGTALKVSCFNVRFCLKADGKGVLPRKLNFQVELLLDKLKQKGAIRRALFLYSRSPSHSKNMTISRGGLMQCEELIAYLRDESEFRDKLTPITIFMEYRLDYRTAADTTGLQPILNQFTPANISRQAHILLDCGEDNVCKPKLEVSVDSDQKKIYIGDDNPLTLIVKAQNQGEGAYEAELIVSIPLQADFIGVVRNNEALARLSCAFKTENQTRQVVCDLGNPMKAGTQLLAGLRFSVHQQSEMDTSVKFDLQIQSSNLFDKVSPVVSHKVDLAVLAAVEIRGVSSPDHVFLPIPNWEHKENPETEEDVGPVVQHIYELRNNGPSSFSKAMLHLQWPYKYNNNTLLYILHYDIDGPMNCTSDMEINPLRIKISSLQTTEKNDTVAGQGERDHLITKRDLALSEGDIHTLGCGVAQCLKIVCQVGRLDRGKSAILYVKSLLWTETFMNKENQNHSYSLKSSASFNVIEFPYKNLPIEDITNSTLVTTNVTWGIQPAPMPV
T1 sequence (P18564 22-707 limits assumed): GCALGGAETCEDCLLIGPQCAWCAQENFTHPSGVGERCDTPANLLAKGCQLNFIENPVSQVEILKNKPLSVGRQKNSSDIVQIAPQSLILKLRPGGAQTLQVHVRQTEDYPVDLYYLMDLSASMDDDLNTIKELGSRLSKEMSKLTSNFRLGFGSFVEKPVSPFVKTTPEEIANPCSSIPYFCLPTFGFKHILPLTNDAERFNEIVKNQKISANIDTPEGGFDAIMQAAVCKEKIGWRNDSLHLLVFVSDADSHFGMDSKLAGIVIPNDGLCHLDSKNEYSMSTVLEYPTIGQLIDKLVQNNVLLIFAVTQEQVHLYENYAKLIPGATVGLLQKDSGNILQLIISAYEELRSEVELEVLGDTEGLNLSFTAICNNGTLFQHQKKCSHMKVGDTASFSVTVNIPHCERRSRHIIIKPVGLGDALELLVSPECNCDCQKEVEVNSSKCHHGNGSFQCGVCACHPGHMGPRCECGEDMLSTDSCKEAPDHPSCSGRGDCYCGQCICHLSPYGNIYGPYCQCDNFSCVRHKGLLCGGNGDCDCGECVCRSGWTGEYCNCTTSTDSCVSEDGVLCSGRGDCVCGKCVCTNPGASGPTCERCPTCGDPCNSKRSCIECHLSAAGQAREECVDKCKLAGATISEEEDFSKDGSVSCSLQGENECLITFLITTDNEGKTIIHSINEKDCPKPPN
T2 sequence (P06756 31-992 limits assumed): as the sequence (P06756 31-992 limits assumed) above
T2 sequence (P05556 21-728 limits assumed): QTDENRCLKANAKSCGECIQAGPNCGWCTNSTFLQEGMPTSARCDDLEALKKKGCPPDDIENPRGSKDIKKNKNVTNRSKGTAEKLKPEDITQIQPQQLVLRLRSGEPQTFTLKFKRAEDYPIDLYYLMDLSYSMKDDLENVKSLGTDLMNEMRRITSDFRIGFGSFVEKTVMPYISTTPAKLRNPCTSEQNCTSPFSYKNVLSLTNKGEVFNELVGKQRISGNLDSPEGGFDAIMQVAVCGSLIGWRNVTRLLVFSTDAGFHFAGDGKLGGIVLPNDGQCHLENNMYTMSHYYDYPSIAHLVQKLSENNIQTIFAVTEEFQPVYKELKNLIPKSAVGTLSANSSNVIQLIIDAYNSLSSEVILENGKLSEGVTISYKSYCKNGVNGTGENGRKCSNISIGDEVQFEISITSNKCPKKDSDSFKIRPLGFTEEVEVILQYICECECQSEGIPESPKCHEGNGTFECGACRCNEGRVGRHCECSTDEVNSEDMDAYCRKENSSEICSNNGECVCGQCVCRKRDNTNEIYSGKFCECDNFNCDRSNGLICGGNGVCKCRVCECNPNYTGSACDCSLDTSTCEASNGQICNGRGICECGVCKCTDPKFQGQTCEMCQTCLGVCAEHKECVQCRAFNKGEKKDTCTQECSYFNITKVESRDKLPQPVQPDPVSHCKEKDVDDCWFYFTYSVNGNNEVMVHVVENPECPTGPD

In general, IC50 refers to the concentration at which inhibition is half-maximal. For the compound `Cc1cc(C)n(-c2cccc(C(CC(=O)O)Cc3csc(CCc4ccc5c(n4)NCCC5)n3)c2)n1` (centres unmarked) [Example 38, 3-(3-(3,5-dimethyl-1H-pyrazol-1-yl)phenyl)-4-(2-(2-(5,6,7,8-tetrahydro-1,8-naphthyridin-2-yl)ethyl)thiazol-4-yl)butanoic acid], the IC50 in test [1] came out at 240 nM; in test [2], 15 nM.

For the compound `CC(C)(C)c1cc(C(CC(=O)O)Cc2cc(OCCc3ccc4c(n3)NCCC4)n(CC(F)(F)F)n2)cc(C(C)(C)C)c1` (centres unmarked) [Example 40, 3-(3,5-di-tert-butylphenyl)-4-(5-(2-(5,6,7,8-tetrahydro-1,8-naphthyridin-2-yl)ethoxy)-1-(2,2,2-trifluoroethyl)-1H-pyrazol-3-yl)butanoic acid trifluoroacetate], the values for the IC50 in test [1] and in test [2] were 790 nM and 3 nM, respectively.

Turning to `Cn1nc(CC(CC(=O)O)c2cc(C(C)(C)C#N)cc(C(C)(C)C#N)c2)cc1OCCc1ccc2c(n1)NCCC2` (centres unmarked) [Example 41, 3-(3,5-bis(2-cyanopropan-2-yl)phenyl)-4-(1-methyl-5-(2-(5,6,7,8-tetrahydro-1,8-naphthyridin-2-yl)ethoxy)-1H-pyrazol-3-yl)butanoic acid trifluoroacetate], the values for the concentration for half-maximal inhibition (IC50) in test [1] and in test [2] were 37 nM and 1 nM, respectively.

As to `COc1ccc(C2=CCOCC2)cc1C(CC(=O)O)Cc1cc(OCCc2ccc3c(n2)NCCC3)n(C)n1` (centres unmarked) [Example 42], the IC50 came out at 17 nM in test [1] and 2 nM in test [2].

In the case of `COc1ccc(C2CCOCC2)cc1C(CC(=O)O)Cc1csc(CCCc2ccc3c(n2)NCCC3)n1` (centres unmarked) [Example 43, 3-(2-methoxy-5-(tetrahydro-2H-pyran-4-yl)phenyl)-4-(2-(3-(5,6,7,8-tetrahydro-1,8-naphthyridin-2-yl)propyl)thiazol-4-yl)butanoic acid], the figures for the IC50 in test [1] and in test [2] were 95 nM and 3 nM, respectively.

As for `COc1ccc(C(CC(=O)O)Cc2cc(OCCc3ccc4c(n3)NCCC4)n(C)n2)cc1F` (centres unmarked) [Example 44, 3-(3-fluoro-4-methoxyphenyl)-4-(1-methyl-5-(2-(5,6,7,8-tetrahydro-1,8-naphthyridin-2-yl)ethoxy)-1H-pyrazol-3-yl)butanoic acid], the IC50 was 44 nM in test [1] and 3.2 nM in test [2].

On to `COCC1(c2ccc(OC)c(C(CC(=O)O)Cc3cc(OCCc4ccc5c(n4)NCCC5)n(C)n3)c2)CCOCC1` (centres unmarked) [Example 45, 3-(2-methoxy-5-(4-(methoxymethyl)tetrahydro-2H-pyran-4-yl)phenyl)-4-(1-methyl-5-(2-(5,6,7,8-tetrahydro-1,8-naphthyridin-2-yl)ethoxy)-1H-pyrazol-3-yl)butanoic acid], for which the IC50 was 4100 nM in test [1] and 2.2 nM in test [2].

On to `COc1ccc(C2CCOCC2)cc1C(CC(=O)O)Cc1cc(OCCc2ccc3c(n2)NCCC3)n(C)n1` (centres unmarked) [Example 46, 3-(2-methoxy-5-(tetrahydro-2H-pyran-4-yl)phenyl)-4-(1-methyl-5-(2-(5,6,7,8-tetrahydro-1,8-naphthyridin-2-yl)ethoxy)-1H-pyrazol-3-yl)butanoic acid], for which the figures for the IC50 in test [1] and in test [2] were 260 nM and 2.8 nM, respectively.

Take `Cn1nc(C[C@@H](CC(=O)O)c2cc3c(c(C(C)(C)C)c2)OCO3)cc1OCCc1ccc2c(n1)NCCC2` [Example 47]: the IC50 was 15 nM in test [1] and 0.92 nM in test [2].

In the case of `COCC1(c2ccc(OC)c([C@H](CC(=O)O)Cc3cc(OCCc4ccc5c(n4)NCCC5)n(C)n3)c2)CCOCC1` [Example 48, (S)-3-(2-methoxy-5-(4-(methoxymethyl)tetrahydro-2H-pyran-4-yl)phenyl)-4-(1-methyl-5-(2-(5,6,7,8-tetrahydro-1,8-naphthyridin-2-yl)ethoxy)-1H-pyrazol-3-yl)butanoic acid], the IC50 in test [1] was 2800 nM; in test [2] it was 2.4 nM.
